US5760036A, “Aminediol protease inhibitors” (E. R. Squibb & Sons, Inc., priority 1995, dated 1998)
Where two headings read alike, the source gives them in different places.

Target: T1, HIV protease (Human immunodeficiency virus type 1 group M subtype B, UniProt P04585)
T1 construct: and purified protease
Test: HIV Protease Assay
Type: biochemical
Outline: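 Purified protease cleaved 450 μM octapeptide substrate in 50 mM sodium acetate pH 5.5 with 100 μg/ml BSA for 30 minutes at 37° C; product analyzed by reverse-phase HPLC at UV220 after H3PO4 quench. Inhibitors tested at final 10 μM with 4% DMSO.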

[1] = pH 5.5, 10 μM inhibitor, 4% DMSO, 450 μM substrate, pH 5.5, 30 minutes at 37° C., RP-HPLC, read-out: HIV Protease % Inhibition at 10 μM

Row | SMILES | inhibition at 10 µM [1] [%] | other results
1 | CC(C)(C)OC(=O)N[C@@H](Cc1ccccc1)[C@H](O)CNC[C@@H](O)[C@H](Cc1ccccc1)NC(=O)[C@@H](NC(=O)OCc1ccccc1)c1ccccc1 [Compound 94, [1S-[1R* [1R*,2S* (2S*,3R*)]]]-[2-[[3-[[3-[[(1,1-Dimethylethoxy)carbonyl]amino]-2-hydroxy-4-phenylbutyl]amino]-2-hydroxy-1-(phenylmethyl)propyl]amino]-2-oxo-1-phenylethyl]carbamic acid, phenylmethyl ester] | 80 to 99 | 
2 | CNC(=O)C(O)(C(=O)N[C@@H](Cc1ccccc1)[C@H](O)CNC[C@@H](O)[C@H](Cc1ccccc1)NC(=O)OC(C)(C)C)C(C)(C)C (single isomer, unassigned; isomer b) [Compound 385, [1S-[1R*,2S*(2S*, 3R*)]]-[3-[[3-[[2-Hydroxy-3,3-dimethyl-2-[(methylamino)carbonyl]-1-oxobutyl]amino]-2-hydroxy-4-phenylbutyl]amino]-2-hydroxy-1-(phenylmethyl)propyl]carbamic acid, 1,1-dimethylethyl ester, isomer B] |  | HIV Protease % Inhibition at 10 μM (10 μM inhibitor, 4% DMSO, 450 μM substrate, pH 5.5, 30 minutes at 37° C., RP-HPLC): 99%
3 | CC(C)(C)OC(=O)N[C@@H](Cc1ccccc1)[C@H](O)CNC[C@@H](O)[C@H](Cc1ccccc1)NC(=O)C(C)(C)CCO [Compound 291, [1S-[1R*,2S*(2S*,3R*)]]-[2-Hydroxy-3-[[2-hydroxy-3-[(4-hydroxy-2,2-dimethyl-1-oxobutyl)amino]-4-phenylbutyl]amino]-1-(phenylmethyl)propyl]carbamic acid, 1,1-dimethylethyl ester] | 73 | 
4 | CC(C)(C)OC(=O)N[C@@H](Cc1ccccc1)[C@H](O)CNC[C@@H](O)[C@H](Cc1ccccc1)NC(=O)OC(C)(C)CN [Compound 216, [1S-(1R*,2S*)]-[Iminobis[2-hydroxy-1-(phenylmethyl)-3,1-propanediyl]]biscarbamic acid. 2-amino-1,1-dimethylethyl-1,1-dimethylethyl ester] |  | inhibition at 10 µM (pH 5.5, read-out: HIV Protease % Inhibition at 10 μM): 49%
5 | CC(C)(C)OC(=O)N[C@@H](Cc1ccccc1)[C@H](O)CNC[C@@H](O)[C@H](Cc1ccccc1)NC(=O)C(=NO)C(C)(C)C [Compound 295, [1S-[1R*,2S*(2S*,3R*)]]-[2-Hydroxy-3-[[2-hydroxy-3-[[2-(hydroxyimino)-3,3-dimethyl-1-oxobutyl]amino]-4-phenylbutyl]amino]-1-(phenylmethyl)propyl]carbamic acid, 1,1-dimethylethyl ester] | 82 | 

Second part, led by results:

Row | inhibition at 10 µM [1] [%] | SMILES | other results
6 | 28 | CC(C)(C)OC(=O)NC[C@H](O)[C@@H](Cc1ccccc1)NC[C@@H](O)[C@H](Cc1ccccc1)NC(=O)OC(C)(C)C [Compound 187, [2S-[2R*,3S*(2S*,3R*)]]-[3-[[3-[[(1,1-Dimethylethoxy)carbonyl]amino]-2-hydroxy-4-phenylbutyl]amino]-2-hydroxy-4-phenylbutyl]carbamic acid, 1,1-dimethylethyl ester] | 
7 | 5 | CC(C)(C)OC(=O)N[C@@H](Cc1ccccc1)[C@H](O)CN[C@H](Cc1ccccc1)[C@@H](O)CNC(=O)OCc1ccccc1 [Compound 185, [2S-[2R*,3S*(2S*,3R*)]]-[3-[[3-[[(1,1-Dimethylethoxy)carbonyl]amino-2-hydroxy-4-phenylbutyl]amino-2-hydroxy-4-phenylbutyl]carbamnic acid, phenylmethyl ester] | 
8 | 11 | CN(Cc1ccccc1)C(=O)N[C@@H](Cc1ccccc1)[C@H](O)CNC[C@@H](O)[C@H](Cc1ccccc1)NC(=O)OC(C)(C)C [Compound 69, [1S-[1R*,2S*(2S*,3R*)]]-2-Hydrox3-[[2-hydroxy-3-[[[methyl(phenylmethyl)-amino]carbonyl]amino]-4-phenylbutyl]amino]-1-(phenylmethyl)propyl]carbamic acid, 1,1-dimethylethyl ester] | 
